# Assay results reported in patent publication US6369079B1 (Sepracor, Inc., priority 1998, dated 2002).
# How the values were obtained:
# [1] = target: T1, 5-HT3 receptor subtypes derived from N1E-115 cells (Mus musculus, UniProt P23979); assay: 5-HT3 receptor radioligand binding (Cerep); conditions: IC50 for binding to 5-HT3 sites, inhibition of specific radioligand binding
# T1 construct: host or cells: N1E-115 cells
# T1 sequence (P23979 24-489): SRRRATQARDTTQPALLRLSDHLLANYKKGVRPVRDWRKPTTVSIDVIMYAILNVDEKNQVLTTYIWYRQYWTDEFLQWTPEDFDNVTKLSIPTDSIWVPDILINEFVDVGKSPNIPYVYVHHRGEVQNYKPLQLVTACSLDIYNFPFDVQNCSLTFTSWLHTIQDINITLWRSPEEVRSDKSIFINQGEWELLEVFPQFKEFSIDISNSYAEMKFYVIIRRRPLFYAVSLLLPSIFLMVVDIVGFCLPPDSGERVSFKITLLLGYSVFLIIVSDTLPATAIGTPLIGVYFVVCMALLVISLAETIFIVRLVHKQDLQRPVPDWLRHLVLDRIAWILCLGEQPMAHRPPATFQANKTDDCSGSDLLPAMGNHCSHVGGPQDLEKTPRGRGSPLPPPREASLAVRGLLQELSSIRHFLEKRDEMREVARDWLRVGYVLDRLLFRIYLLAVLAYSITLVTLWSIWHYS
# Description: Following incubation with the appropriate ligands, the preparations are rapidly filtered under vacuum through GF/B glass fiber filters and washed with ice-cold buffer using a Brandel or Packard cell harvester.
# (§1) Specific radioligand binding to the receptor is defined as the difference between total binding and nonspecific binding determined in the presence of an excess of unlabeled ligand. Results are expressed as a percent inhibition of specific binding obtained in the presence of the compounds.
# [2] = target: T2, 5-HT4 receptor subtypes derived from guinea-pig striata (Cavia porcellus, UniProt O70528); assay: 5-HT4 receptor radioligand binding (Cerep); conditions: IC50 for binding to 5-HT4 sites, inhibition of specific radioligand binding
# T2 construct: tissue Cerep, Celle l'Evescault, France; host or cells: guinea-pig striata
# Description: Following incubation with the appropriate ligands, the preparations are raidly filtered under vacuum through GF/B glass fiber filters and washed with ice-cold buffer using a Brandel or Packard cell harvester.
# as §1
# [3] = target: T3, cloned human serotonin 5-HT1A receptor (Homo sapiens, UniProt P08908); assay: R-SAT 5-HT1A receptor activity (agonist/antagonist); format: cell-based; conditions: antagonist activity against 2 μM 5-HT, NIH 3T3 cells, read-out: Calculated IC50 at 5-HT1A receptor
# T3 construct: host or cells: NIH 3T3 cells
# T3 sequence (P08908 1-422): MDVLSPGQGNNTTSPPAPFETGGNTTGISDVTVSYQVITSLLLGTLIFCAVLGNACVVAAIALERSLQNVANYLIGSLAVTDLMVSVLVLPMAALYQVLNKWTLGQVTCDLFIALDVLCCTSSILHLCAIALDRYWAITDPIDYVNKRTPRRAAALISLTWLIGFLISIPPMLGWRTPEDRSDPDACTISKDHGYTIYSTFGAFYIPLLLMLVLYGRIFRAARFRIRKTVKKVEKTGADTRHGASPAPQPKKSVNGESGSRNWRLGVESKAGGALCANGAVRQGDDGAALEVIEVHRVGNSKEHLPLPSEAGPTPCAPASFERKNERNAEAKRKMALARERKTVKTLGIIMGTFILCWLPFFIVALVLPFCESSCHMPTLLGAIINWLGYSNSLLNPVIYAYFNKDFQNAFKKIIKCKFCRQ
# Description: The assay involves co-expression of a marker enzyme, β-galactosidase, with the serotonin receptor of interest. Ligands stimulate proliferation of cells that express the receptor and, therefore, the marker. Ligand-induced effects can be determined by assay of the marker.
# NIH 3T3 cells are incubated, plated, and then transfected using human 5-HT1A serotonin receptors, pSV-β-galactosidase, and salmon sperm DNA. The medium is changed one day later, and after 2 days, aliquots of the trypsinized cells are placed in wells of a 96 well plate. After five days in culture in the presence of the ligands, the levels of β-galactosidase are measured. The cells are then rinsed and incubated with the substrate, […] β-D-galactopyranoside.
# Data from antagonist inhibition of the compounds are fit to the equation:
# Response Max Response +(Min Response)/1+(Ligand Conc/[…])
# [4] = cited from earlier work
# [5] = co-administration with ketoconazole; cited from earlier work
# T2 sequence (O70528 whole entry): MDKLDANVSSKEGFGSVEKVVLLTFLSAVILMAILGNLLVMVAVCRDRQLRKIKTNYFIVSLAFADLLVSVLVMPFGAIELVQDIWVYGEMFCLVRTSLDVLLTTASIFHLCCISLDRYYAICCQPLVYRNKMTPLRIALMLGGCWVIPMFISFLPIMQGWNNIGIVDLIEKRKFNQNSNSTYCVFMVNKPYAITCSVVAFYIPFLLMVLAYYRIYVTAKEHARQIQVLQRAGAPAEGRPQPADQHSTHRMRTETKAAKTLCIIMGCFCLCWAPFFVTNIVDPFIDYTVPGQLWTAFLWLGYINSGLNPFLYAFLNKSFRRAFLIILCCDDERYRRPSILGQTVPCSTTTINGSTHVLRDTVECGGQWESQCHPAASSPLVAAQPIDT
IC50 [1] [nM],IC50 [2] [nM],IC50 [3] [nM],Compound,Absorption after oral administration ([4]; humans),"Fraction of dose metabolized ([4]; humans, mainly oxidative N-dealkylation or aromatic hydroxylation)","Bioavailability ([4]; oral administration to humans, rapid first-pass metabolism in the liver)",Increase of steady-state plasma levels [5] [fold]
4.5,331,5.4,"COc1cc(N)c(Cl)cc1C(=O)NC1CCNCC1OC (single isomer, unassigned; (+)) [(+) Norcisapride, 4-amino-5-chloro-N-(3-methoxy-4-piperidinyl)-2-methoxybenzamide]",,,,
8.2,686,7480,"COc1cc(N)c(Cl)cc1C(=O)NC1CCNCC1OC (racemic) [(±) Norcisapride, 4-amino-5-chloro-N-(3-methoxy-4-piperidinyl)-2-methoxybenzamide]",,,,
30.4,1350,1300,"COc1cc(N)c(Cl)cc1C(=O)NC1CCNCC1OC (single isomer, unassigned; (-)) [(−) Norcisapride, 4-amino-5-chloro-N-(3-methoxy-4-piperidinyl)-2-methoxybenzamide]",,,,
,,,"COc1cc(N)c(Cl)cc1C(=O)NC1CCN(CCCOc2ccc(F)cc2)CC1OC (racemic) [(±) Cisapride, cis-4-amino-5-chloro-N-[1-[3-(4-fluorophenoxy)propyl]-3-methoxy-4-piperidinyl]-2-methoxybenamide]",almost completely absorbed,More than 90%,40-50%,8
